Source: patent US20260373101A1, “POLYAMINATED FATTY ACIDS FOR USE AS POTENTIATORS OF ANTIBACTERIAL ACTIVITY” (priority 2023, published 2026)
≈ marks a conversion by molar mass, not a printed value.

Columns and labels:
Format in all cases: cell-based
P. aeruginosa ATCC27853 = assay: Intrinsic antibacterial activity, standard microdilution (CLSI); conditions: Pseudomonas aeruginosa; P. aeruginosa ATCC27853, compound alone, 24 h, 37 °C
Description: (§1) The bacterial strains used in the examples below are the reference strains P. aeruginosa ATCC27853, E. coli ATCC25922, K. pneumoniae ATCC51296, S. aureus ATCC25923 and E. faecalis ATCC29212. The bacterial strains were previously stored in 15% (v/v) glycerol at −80 °C for cryoprotection. One colony of the fresh culture of each strain was incubated in a culture tube containing 3 ml of Mueller-Hinton broth (MH2) at 37 °C overnight with agitation. This suspension was used for inoculum preparation.
(§2) The antibacterial activity of said polyaminated fatty acid compounds was measured using a standard microdilution test based on Clinical and Laboratory Standards Institute (CLSI) guidelines. This method was slightly modified by increasing the assay volumes to 200 μl so as to improve reproducibility.
(§3) A negative control which corresponds to 2 ml of sterile culture medium and a positive control which corresponds to a mixture of 1980 μl of culture medium and 20 μl of bacterial suspension from a thawed biological strain (biological strains are stored at −80 °C in glycerol) were prepared.
(§4) The tubes were incubated in an incubator shaker “Infors” at 37 °C for 24 hours at 100 round per minute (rpm).
(§5) The polyaminated fatty acid compounds to be tested were prepared in water at a concentration of 10 mM.
(§6) The required volume of the microbial suspension to be inoculated was calculated for an optical density (OD) measured corresponding to a value equal to 0.01 in each well by using a spectrophotometer at 600 nm. In the microplate, the first row corresponded to the negative control (200 μl of sterile culture medium in each well), the second row to the positive control (seeded culture medium), the third row was loaded twice with bacterial suspension and with 8 μl of a given polyaminated fatty acid compound in each well. Subsequently, a half-fold cascade dilution was performed from this line. The first column was used as an inhibition control. A sterile filter was then placed on the microplate allowing the passage of gases but not contaminants. The microplate was incubated at 37 °C in a humid atmosphere for 24 hours. After 24 hours of incubation, an optical density measurement was performed by taking 100 μl of the bacterial suspension diluted in 900 μl of sterile culture medium.
(§7) The medium used was Mueller-Hinton medium (MH) for bacteria. All tests were performed in duplicate.
(§8) Table 1 below reports the intrinsic antibacterial activity of some polymaminated fatty acids prepared in example 1 (MIC in μM) as well as their toxicity towards eucaryotic cells (IC50 in μM).

S. aureus ATCC25923 = assay: as above; conditions: Staphylococcus aureus; S. aureus ATCC25923, compound alone, 24 h, 37 °C
Description: as §1, §2, §3, §4, §5, §6, §7, §8

E. coli ATCC28922 = assay: as above; conditions: Escherichia coli, ATCC28922, 24 h
[1] = test system: Chinese hamster ovary cells (CHO-K1); assay: Toxicity on mammalian cells, WST1 assay; conditions: Cricetulus griseus; CHO-K1 cell viability, WST1, 24 h
Description: The WST1 assay was used to measure the cytotoxic activity of the polyaminated fatty acid compounds. It is a colorimetric assay that measures viability and cell proliferation rate. It is based on the cleavage of colorless tetrazolium salts WST-1 (4-[3-(4-iodophenyl)-2-(4-nitrophenyl)-2H-5-tetrazolio]-1,3-benzene disulfonate) by mitochondrial dehydrogenases into yellow formazan derivative, quantifiable by spectrophotometry at 420-480 nm.
The WST1 assay was performed on Chinese hamster ovary cells. CHO-K1 cells (ATCC, USA) were maintained in culture in “Mac Coy's 5A” medium supplemented with 10% fetal calf serum, 2 mM L-glutamine and streptomycin penicillin mixture (100 U/ml: 10 μg/ml). Incubation is carried out at 37 °C under CO2 enriched atmosphere (5% by volume) and subcultured every two days.
Cells are transferred to 96-well plates (25,000 cells/ml) in complete “Mac Coy's 5A medium”, and maintained for 24 h at 37 °C under a humid CO2-enriched atmosphere (5% by volume). Increasing concentrations of given polyaminated fatty acid compounds are added to the wells in duplicate assays and 8 growth controls containing cells in medium alone are included in each assay run. After 24 hours at 37 °C (5% CO2), the culture medium is removed, the cells are rinsed in phosphate buffer (PBS) and 50 μL of PBS containing 10% WST1 reagent is added to each well. After 20 minutes of incubation at 37 °C, the results are read by spectrophotometry at 450 nm.
The results are expressed as dose-response relationships, modeled by a non-linear regression analysis using TableCurve software. The 50% Inhibitory Concentration (IC50) represents the concentration of polyaminated fatty acid compound capable of reducing cell viability by 50%.

E. coli AG-100A = assay: Potentiation of known antibiotics (MIC of antibiotic alone or with PAFA); conditions: Escherichia coli, AG100A, 24 h
Description: (§9) 100 μl of a liquid culture medium is deposited in each well of a 96-well microplate, and then inoculated with the bacterial suspension of example 2.1 prepared for the positive control. The volume needed to inoculate is calculated for an OD of 0.01 which corresponds to approximately 5,106 bacteria in each well. In this plate, the first row corresponds to a negative control (200 μl of sterile culture medium in each well), the second row to a positive control (100 μl of sterile culture medium with 100 μl of the bacterial suspension), the third row contains 192 μl of culture medium and 8 μl of an antibiotic solution (10 mg/ml) to be tested in each well. Subsequently, a cascade dilution is performed from this line. Next, 10 μl of a fatty acid solution (10 μM final concentration) is added to each well of the lines. Then, 90 μl of bacterial suspension is added to lines 3 to 8. The MIC of the antibiotic tested is determined after 24 hours of incubation at 37 °C in a humid atmosphere.
(§10) The table 3 below reports the antibacterial activity (MIC in μg/mL) of a combination of some polyaminated fatty acids prepared in example 1 with various antibacterial drugs: doxycycline (DOX), tetracycline (TET), oxytetracycline (OXY) and minocycline (MINO), against various bacterial strains of P. aeruginosa (PA01, PA0509, and PA263), and of E. coli (AG-100 and AG-100A).

E. coli AG-100 = assay: as above; conditions: Escherichia coli, AG100, 24 h
Description: as §9, §10

P. aeruginosa PA01 = assay: as above; conditions: Pseudomonas aeruginosa, PA01, 24 h
Description: as §9, §10

P. aeruginosa PA0509 = assay: as above; conditions: Pseudomonas aeruginosa, PA0509, 24 h
Description: as §9, §10

P. aeruginosa PA263 = assay: as above; conditions: for MIC: Pseudomonas aeruginosa, PA263, 24 h, 24 h
Description: as §9, §10

[2] = MIC of antibiotic, +PAFA10 (10 μM)
[3] = MIC of antibiotic, +PAFA11 (10 μM)
[4] = MIC of antibiotic, +PAFA14 (10 μM)
[5] = MIC of antibiotic, AG-100, +PAFA10 (10 μM)
[6] = MIC of antibiotic, AG-100, +PAFA11 (10 μM)
[7] = MIC of antibiotic, AG-100, +PAFA14 (10 μM)
[8] = MIC of antibiotic, PA01, +PAFA10 (10 μM)
[9] = MIC of antibiotic, PA01, +PAFA11 (10 μM)
[10] = MIC of antibiotic, PA01, +PAFA14 (10 μM)
[11] = MIC of antibiotic, PA0509, +PAFA10 (10 μM), 24 h
[12] = MIC of antibiotic, PA0509, +PAFA11 (10 μM), 24 h
[13] = MIC of antibiotic, PA0509, +PAFA14 (10 μM), 24 h
[14] = MIC of antibiotic, PA263, +PAFA10 (10 μM)
[15] = MIC of antibiotic, PA263, +PAFA11 (10 μM)
[16] = MIC of antibiotic, PA263, +PAFA14 (10 μM)

Structure (SMILES) | MIC (P. aeruginosa ATCC27853) [µM] | MIC (S. aureus ATCC25923) [µM] | MIC (E. coli ATCC28922) [µM] | IC50 [1] [µM] | MIC (E. coli AG-100A; Antibiotic alone) [µg/mL] | MIC (E. coli AG-100A; [2]) [µg/mL] | MIC (E. coli AG-100A; [3]) [µg/mL] | MIC (E. coli AG-100A; [4]) [µg/mL] | MIC (E. coli AG-100; AG-100, Antibiotic alone) [µg/mL] | MIC (E. coli AG-100; [5]) [µg/mL] | MIC (E. coli AG-100; [6]) [µg/mL] | MIC (E. coli AG-100; [7]) [µg/mL] | MIC (P. aeruginosa PA01; [8]) [µg/mL] | MIC (P. aeruginosa PA01; [9]) [µg/mL] | MIC (P. aeruginosa PA01; [10]) [µg/mL] | MIC (P. aeruginosa PA01; PA01, Antibiotic alone) [µg/mL] | MIC (P. aeruginosa PA0509) [µg/mL] | MIC (P. aeruginosa PA0509; [11]) [µg/mL] | MIC (P. aeruginosa PA0509; [12]) [µg/mL] | MIC (P. aeruginosa PA0509; [13]) [µg/mL] | other results
CCCCCCCC/C=C\CCCCCCCC(=O)NCCCNCCCCNCCCN [PAFA1] | > 200 | > 200 | > 200 | 152 | – | – | – | – | – | – | – | – | – | – | – | – | – | – | – | – | –
CCCCCCCCCCCCCCCC(=O)NCCCNCCCCNCCCN [PAFA4] | > 200 | > 200 | > 200 | 268 | – | – | – | – | – | – | – | – | – | – | – | – | – | – | – | – | –
CCCCC/C=C\C/C=C\CCCCCCCC(=O)NCCCN [PAFA7] | > 200 | 50 (≈ 16.8 µg/mL) | 100 (≈ 33.7 µg/mL) | 168 | – | – | – | – | – | – | – | – | – | – | – | – | – | – | – | – | –
CN(C)c1ccc(O)c2c1C[C@H]1C[C@H]3[C@H](N(C)C)C(O)=C(C(N)=O)C(=O)[C@@]3(O)C(O)=C1C2=O [MINO, minocycline] | – | – | – | – | 0.25 | 0.25 | 0.25 | 0.004 | 1 | 0.13 | 0.13 | 0.004 | 2 | 4 | 0.5 | 16 | 1 | 0.5 | 0.5 | 0.063 | fold reduction in MIC (MIC alone / MIC with PAFA) (P. aeruginosa PA263; PA263, +PAFA11 (10 μM)): 2; MIC (P. aeruginosa PA263; [14]): 4 µg/mL; MIC (P. aeruginosa PA263; [15]): 8 µg/mL; MIC (P. aeruginosa PA263; [16]): 2 µg/mL; MIC (P. aeruginosa PA263; PA263, Antibiotic alone): 16 µg/mL
CCCCCCCCCCCCCCCC(=O)NCCCNCCCN [PAFA3] | > 200 | > 200 | 200 (≈ 73.9 µg/mL) | 56 | – | – | – | – | – | – | – | – | – | – | – | – | – | – | – | – | –
CN(C)[C@@H]1C(O)=C(C(N)=O)C(=O)[C@@]2(O)C(O)=C3C(=O)c4c(O)cccc4[C@@](C)(O)[C@H]3[C@H](O)[C@@H]12 [OXY, oxytetracycline] | – | – | – | – | 1 | 1 | 1 | 0.008 | 1 | 1 | 0.13 | 0.008 | 8 | 8 | 2 | 32 | 1 | 0.25 | 0.5 | 0.063 | fold reduction in MIC (MIC alone / MIC with PAFA) (P. aeruginosa PA263; PA263, +PAFA11 (10 μM)): 2; MIC (P. aeruginosa PA263; [14]): 8 µg/mL; MIC (P. aeruginosa PA263; [15]): 16 µg/mL; MIC (P. aeruginosa PA263; [16]): 4 µg/mL; MIC (P. aeruginosa PA263; PA263, Antibiotic alone): 32 µg/mL
CCCCC/C=C\C/C=C\CCCCCCCC(=O)NCCCNCCCNCCCN [PAFA13] | 200 (≈ 90.2 µg/mL) | 50 (≈ 22.5 µg/mL) | 100 (≈ 45.1 µg/mL) | 465 | – | – | – | – | – | – | – | – | – | – | – | – | – | – | – | – | –
CN(C)[C@@H]1C(O)=C(C(N)=O)C(=O)[C@@]2(O)C(O)=C3C(=O)c4c(O)cccc4[C@@](C)(O)[C@H]3C[C@@H]12 [TET, tetracycline] | – | – | – | – | 1 | 0.5 | 0.5 | 0.008 | 1 | 0.5 | 0.25 | 0.008 | 8 | 8 | 2 | 32 | 1 | 0.5 | 0.25 | 0.125 | fold reduction in MIC (MIC alone / MIC with PAFA) (P. aeruginosa PA263; PA263, +PAFA11 (10 μM)): 2; MIC (P. aeruginosa PA263; [14]): 8 µg/mL; MIC (P. aeruginosa PA263; [15]): 16 µg/mL; MIC (P. aeruginosa PA263; [16]): 4 µg/mL; MIC (P. aeruginosa PA263; PA263, Antibiotic alone): 32 µg/mL
